Source: patent publication US20110195929A1, “COMPOUNDS FOR THE TREATMENT OF FLAVIVIRAL INFECTIONS” (SUMMIT CORPORATION PLC, priority 2008, published 2011)

Tests used:
α-L-fucosidase = target: T1, α-L-fucosidase (Bos taurus, UniProt Q2KIM0); test: Glycosidase inhibition: α-L-fucosidase; format: biochemical, Bovine kidney; conditions: 1 mg/ml; pH 5.5, 20° C
T1 construct: purchased Sigma; host or cells: bovine kidney
T1 sequence (Q2KIM0 23-468): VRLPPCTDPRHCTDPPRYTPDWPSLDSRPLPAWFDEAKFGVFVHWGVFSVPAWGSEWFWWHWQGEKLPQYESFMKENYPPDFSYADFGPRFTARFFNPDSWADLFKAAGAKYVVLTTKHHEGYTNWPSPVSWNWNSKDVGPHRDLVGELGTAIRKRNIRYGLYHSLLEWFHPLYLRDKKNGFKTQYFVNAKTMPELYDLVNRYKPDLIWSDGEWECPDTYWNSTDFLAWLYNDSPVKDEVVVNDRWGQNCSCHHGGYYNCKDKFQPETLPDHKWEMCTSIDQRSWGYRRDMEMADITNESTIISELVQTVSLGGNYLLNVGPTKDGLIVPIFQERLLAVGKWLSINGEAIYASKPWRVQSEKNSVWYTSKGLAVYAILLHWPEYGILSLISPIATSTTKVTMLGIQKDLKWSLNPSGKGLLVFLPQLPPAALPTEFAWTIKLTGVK
Procedure: (§1) All enzymes were purchased from Sigma, as were the appropriate p-nitrophenyl substrates. Assays were carried out in microtitre plates. Enzymes were assayed in 0.1M citric acid/0.2M di-sodium hydrogen phosphate (McIlvaine) buffers at the optimum pH for the enzyme. All assays were carried out at 20° C. For screening assays the incubation assay consisted of 10 μl of enzyme solution, 10 μl of inhibitor solution (made up in water at 5 mM) and 50 μl of the appropriate 5 mM p-nitrophenyl substrate (3.57 mM final conc.) made up in McIlvaine buffer at the optimum pH for the enzyme.
(§2) The reactions were stopped with 0.4M glycine (pH 10.4) during the exponential phase of the reaction, which was determined at the beginning of the assay using blanks with water, which were incubated for a range of time periods to measure the reaction rate using 5 mM substrate solution. Endpoint absorbances were read at 405 nm with a Bio-rad microtitre plate reader (Benchmark). Water was substituted for the inhibitors in the blanks.

β-D-galactosidase = test: Glycosidase inhibition: β-D-galactosidase; format: biochemical, Bovine liver; conditions: 1 mg/ml; pH 7.3, 20° C
Procedure: as §1, with “Inhibition of the N-linked glycan trimming enzymes alpha-Glucosidases I and II or alpha-Mannosidases I and II are thought to be related to the anti-viral activity of castanospermine (Compound 104) and 1-deoxynojirimycin (Compound 193). […] All enzymes” for “All enzymes”
as §2

HCV = test: Cell-based HCV infection NS3 protease FRET assay in DMSO-Huh7 cells; parameters: species or system hepatitis C virus (HCV); conditions: DMSO-Huh7 cells infected with HCV at 0.05 ffu/cell; HCV NS3 protein levels by FRET, day 6 p.i.
β-D-glucosidase = test: Glycosidase inhibition: β-D-glucosidase; format: biochemical, Almonds (Prunus sp.); conditions: 1 mg/ml; pH 5.0, 20° C
Procedure: as §1, with “Inhibition of the N-linked glycan trimming enzymes alpha-Glucosidases I and II or alpha-Mannosidases I and II are thought to be related to the anti-viral activity of castanospermine (Compound 104) and 1-deoxynojirimycin (Compound 193). […] All enzymes” for “All enzymes”
as §2

[1] = test system: N-acetyl-β-D-glucosaminidase; test: Glycosidase inhibition: N-acetyl-β-D-glucosaminidase; format: biochemical, Bovine kidney; conditions: 1 mg/ml; pH 4.25, 20° C
Procedure: as §1, with “Inhibition of the N-linked glycan trimming enzymes alpha-Glucosidases I and II or alpha-Mannosidases I and II are thought to be related to the anti-viral activity of castanospermine (Compound 104) and 1-deoxynojirimycin (Compound 193). […] All enzymes” for “All enzymes”
as §2

α-D-glucosidase = target: T2, α-D-glucosidase (Oryza sativa subsp. japonica, UniProt Q653V7); test: Glycosidase inhibition: α-D-glucosidase (rice); format: biochemical, rice (Oryza sativa); conditions: 1 mg/ml; pH 6.0, 20° C; read-out: % inhibition α-gluc (rice)
T2 construct: purchased Sigma
T2 sequence (Q653V7 34-885): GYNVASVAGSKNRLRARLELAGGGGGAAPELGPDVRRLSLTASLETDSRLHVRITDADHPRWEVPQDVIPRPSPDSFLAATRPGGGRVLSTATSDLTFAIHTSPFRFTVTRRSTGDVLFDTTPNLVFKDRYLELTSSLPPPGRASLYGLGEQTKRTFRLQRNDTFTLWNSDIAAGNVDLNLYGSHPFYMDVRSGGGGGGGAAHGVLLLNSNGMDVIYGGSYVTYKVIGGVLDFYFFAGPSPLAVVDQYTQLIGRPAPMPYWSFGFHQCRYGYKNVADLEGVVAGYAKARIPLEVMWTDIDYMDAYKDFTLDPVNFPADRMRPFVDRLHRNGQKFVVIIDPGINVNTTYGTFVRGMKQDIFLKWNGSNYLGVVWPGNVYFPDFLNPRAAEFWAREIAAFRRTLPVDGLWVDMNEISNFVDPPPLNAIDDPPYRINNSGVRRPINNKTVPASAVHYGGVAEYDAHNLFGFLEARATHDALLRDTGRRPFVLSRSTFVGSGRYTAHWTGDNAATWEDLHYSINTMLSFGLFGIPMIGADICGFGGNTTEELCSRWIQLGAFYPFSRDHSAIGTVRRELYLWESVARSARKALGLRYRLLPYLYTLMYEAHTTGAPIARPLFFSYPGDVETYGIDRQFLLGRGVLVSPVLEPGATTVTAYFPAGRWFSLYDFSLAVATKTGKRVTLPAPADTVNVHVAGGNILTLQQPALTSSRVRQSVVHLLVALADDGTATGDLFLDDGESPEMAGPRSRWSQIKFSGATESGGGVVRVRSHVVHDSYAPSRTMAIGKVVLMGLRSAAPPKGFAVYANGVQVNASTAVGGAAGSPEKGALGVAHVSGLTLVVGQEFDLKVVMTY
Procedure: as §1, with “Inhibition of the N-linked glycan trimming enzymes alpha-Glucosidases I and II or alpha-Mannosidases I and II are thought to be related to the anti-viral activity of castanospermine (Compound 104) and 1-deoxynojirimycin (Compound 193). […] All enzymes” for “All enzymes”
as §2

Row | SMILES | inhibition at 1000 µg/mL (α-L-fucosidase) [%] | % inhibition β-galactosidase (β-D-galactosidase) [%] | Ave % inhibition (HCV) | % inhibition β-glucosidase (β-D-glucosidase) [%] | % inhibition N-acetyl-β-gluc [1] [%] | inhibition at 1000 µg/mL (α-D-glucosidase) [%]
1 | CC[C@@H]1N[C@@H](CO)[C@H](O)[C@@H](O)[C@@H]1O [Compound 23, (2S,3R,4S,5S,6S)-2-ethyl-6-(hydroxymethyl)piperidine-3,4,5-triol] | 0 | 53 | + (+: ≦19%) | 28 | 0 | 66
2 | CC[C@@H](O)[C@H]1N[C@H](CO)[C@@H](O)[C@@H]1O [Compound 62, (2R,3R,4R,5R)-2-(hydroxymethyl)-5-((R)-1-hydroxypropyl)pyrrolidine-3,4-diol] | 0 | 100 | + (+: ≦19%) | 100 | 20 | 32
3 | CC(O)[C@H](O)[C@H]1N[C@H](CO)[C@@H](O)[C@@H]1O (stereo partly drawn) [Compound 63, (2R,3R,4R,5R)-2-((1R)-1,2-dihydroxypropyl)-5-(hydroxymethyl)pyrrolidine-3,4-diol] | 0 | 93 | + (+: ≦19%) | 93 | 0 | 41
4 | O[C@H]1[C@H](O)[C@@H](O)CN2CC[C@H](O)[C@H]12 [Compound 104, Castanospermine, reference compound] | 0 | 16 |  | 88 | 0 | 90
5 | OC[C@@H]1NC[C@H](O)[C@@H]1O [Compound 167, (2S,3R,4S)-2-(hydroxymethyl)pyrrolidine-3,4-diol] | 28 | 0 |  | 22 | 19 | 58
